Experimental data as given in patent US5010089A, “CCK antagonists and their use in treating gastrointestinal disorders” (Biomeasure, Inc., priority 1989, dated 1991).
pIC50: −log10 of the molar value.

Columns and labels:
Pancreatic CCK Receptor = target: T1, Pancreatic CCK Receptor (Rattus norvegicus, UniProt P30551); test: [125I]CCK8 binding assay, pancreatic membranes; parameters: species or system Sprague-Dawley rats; settings: [125I]CCK8 0.05 nM, rat pancreas membranes, 90 min, 25° C.
T1 construct: the pancreas or cerebral was removed and homogenized; from tissue; host or cells: pancreas of male Sprague-Dawley rats, membrane preparation
T1 sequence (P30551 1-444): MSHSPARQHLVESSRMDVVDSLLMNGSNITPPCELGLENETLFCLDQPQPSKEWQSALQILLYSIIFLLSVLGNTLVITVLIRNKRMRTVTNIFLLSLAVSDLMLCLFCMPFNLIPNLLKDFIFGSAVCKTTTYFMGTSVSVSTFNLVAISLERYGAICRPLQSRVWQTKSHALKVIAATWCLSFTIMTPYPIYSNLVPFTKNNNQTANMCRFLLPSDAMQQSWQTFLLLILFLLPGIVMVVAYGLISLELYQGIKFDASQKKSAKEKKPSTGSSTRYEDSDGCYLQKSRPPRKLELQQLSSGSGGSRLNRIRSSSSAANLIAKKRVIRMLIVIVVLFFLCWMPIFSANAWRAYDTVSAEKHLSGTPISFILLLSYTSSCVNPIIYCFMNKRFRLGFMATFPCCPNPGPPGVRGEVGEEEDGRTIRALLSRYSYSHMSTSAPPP
Description: Inhibition studies of CCK by specific compounds of the present invention were carried out as follows. Male, Sprague-Dawley rats were sacrificed by decapitation and the pancreas or cerebral was removed and homogenized with a Brinkman Polytron (setting 6, 15 sec). The homogenates were centrifuged twice at 39,000 g for 10 min (4° C.), with an intermediate resuspension in fresh buffer. The final pellets were resuspended in the following buffer for the [^125 I]CCK8 binding assay: 10 mM HEPES, 118 mM NaCL, 4.7 mM KCl, and 5 mM MgCL2, 1 mM EGTA, 5 mg/ml bovine serum albumin, and 0.25 mg/ml bacitracin.
For the [^125 I]CCK8 binding assay, aliquots of the membrane preparations were added to plastic culture tubes containing 0.05 nM [^125 I]CCK8 (2200 Ci/mmol, New England Nulclear Corp ) and various concentrations of the test compounds in a final volume of 0.5 ml. The incubation period was 90 min (25° C.). The binding reaction was terminated by the addition of 4 ml of ice-cold buffer, followed by filtration through Whatman GF/B filters which had been previously soaked in 2% bovine serum albumin. Each tube and filter were then washed three times with 4-ml aliquots of ice-cold buffer. The radioactivity trapped on the filters was counted in an LKB Clini Gamma counter. Specific binding was defined as the total [^125 I]CCK8 bound minus that bound in the presence of 1 μM unlabeled CCK8.
Table 1 sets forth data from inhibition studies of CCK by specific compounds of the present invention in which Ar, m, and A are defined as set forth below: […]

gastric emptying = test: anti-spasmodic activity: effect on gastric emptying (charcoal meal) after CCK-8 in mice; type: in vivo, CF1 mice; settings: for ED50: Mus musculus, anti-spasmodic activity
Description: In vivo studies were made to test the therapeutic effect of α-N-(2-indolylcarbonyl) L-tryptyl-N'-phenylethylglycine (BIM-18216),α-N-(3-quinolylcarbonyl)-L-tryptyl-N'-phenylethylglycine (BIM-18225), α-N-(2-naphthylcarbonyl)-L-tryptyl-N'-phenylethylglycine (BIM-18226), and α-N-(2-indolylcarbonyl) D-tryptyl-N'-phenylethylglycine (BIM-18227). The effect of the foregoing compounds on gastric emptying was measured as the percentage of anti-spasmodic activity. Tests were carried out on female CF1 mice as follows. Mice weighing approximately 20 g were fasted overnight. Test compounds were administered in one of four ways: intraperitoneally (i.p.), subcutaneously (s.c.), intravenously (i.v.), or orally (p.o.). Test compounds administered orally were dissolved in a mixture of 75% by volume polyethylene glycol 400 NF, 15% by volume propylene glycol USP, and 10% by volume purified H2 O USP. For other methods of administration, the test compounds were dissolved in a solution of saline containing 10% DMSO (by volume) for i.v. administration; and in a solution of saline containing 10% DMSO (by volume) and 0.25% methylcellulose (by weight) for s.c. or i.p. administration. Test compounds were administered to the mice 15 minutes prior to administering CCK-8 (40 μg/kg, s.c.). The mice were fed a charcoal meal orally 5 minutes after CCK injection and the animals were sacrificed 5 minutes later. The lengths of the intestines filled with charcoal were measured and the % of anti-spasmodic activity was calculated based upon the lengths according to the following formula: [formula]
Table 2, below, contains data on the anti-spasmodic activity of the compounds tested by oral administration.
Table 3, below, contains data for the test compound BIM-18216 administered in each of the four different ways discussed above.

[1] = Table 2, 100 mg/kg p.o., 15 min before CCK-8 (40 μg/kg, s.c.)
[2] = Table 2, 125 mg/kg p.o., 15 min before CCK-8 (40 μg/kg, s.c.), 125 mg/kg
[3] = Table 2, 125 mg/kg p.o., 15 min before CCK-8 (40 μg/kg, s.c.)

Work on `O=C(O)CN(CCc1ccccc1)C(=O)C(Cc1c[nH]c2ccccc12)NC(=O)c1ccc2ccccc2n1` [2-quinolyl, α-N-(2 quinolylcarbonyl) L-tryptyl-N'-phenylethylglycine] yielded a pIC50 (Pancreatic CCK Receptor) of 6.77.
With `O=C(O)CN(CCc1ccccc1)C(=O)C(Cc1c[nH]c2ccccc12)NC(=O)c1cc2ccccc2[nH]1` [BIM-18227, α-N-(2-indolylcarbonyl) D-tryptyl-N'-phenylethylglycine] the pIC50 (Pancreatic CCK Receptor) was 7.52, the “% Anti-Spasmodic Activity” value (gastric emptying; [1]) was 24% and the “% Anti-Spasmodic Activity” value (gastric emptying; [2]) was 60%.
With `O=C(O)CN(CCc1ccccc1)C(=O)C(Cc1c[nH]c2ccccc12)NC(=O)c1cc2ccccc2[nH]1` [BIM-18216, α-N-(2-indolylcarbonyl) L-tryptyl-N'-phenylethylglycine] the ED50 (gastric emptying; ip) was 5.8 mg/kg, the ED50 (gastric emptying; iv) was 6.6 mg/kg and the ED50 (gastric emptying; po) was 96.7 mg/kg. The ED50 (gastric emptying; sc) was 4.5 mg/kg, the “% Anti-Spasmodic Activity” value (gastric emptying; [2]) was 78% and the “% Anti-Spasmodic Activity” value (gastric emptying; Table 3, 1 mg/kg i.p., 15 min before CCK-8) was 1%. The “% Anti-Spasmodic Activity” value (gastric emptying; Table 3, 1 mg/kg s.c., 15 min before CCK-8) was 1%, the “% Anti-Spasmodic Activity” value (gastric emptying; Table 3, 5 mg/kg i.p., 15 min before CCK-8) was 45% and the “% Anti-Spasmodic Activity” value (gastric emptying; Table 3, 5 mg/kg i.v., 15 min before CCK-8) was 36%. For the same molecule, the “% Anti-Spasmodic Activity” value (gastric emptying; Table 3, 5 mg/kg s.c., 15 min before CCK-8) was 53%, the “% Anti-Spasmodic Activity” value (gastric emptying; Table 3, 10 mg/kg i.v., 15 min before CCK-8) was 70% and the “% Anti-Spasmodic Activity” value (gastric emptying; Table 3, 10 mg/kg s.c., 15 min before CCK-8) was 75%. The “% Anti-Spasmodic Activity” value (gastric emptying; Table 3, 25 mg/kg i.p., 15 min before CCK-8) was 91%, the “% Anti-Spasmodic Activity” value (gastric emptying; Table 3, 25 mg/kg i.v., 15 min before CCK-8) was 123% and the “% Anti-Spasmodic Activity” value (gastric emptying; Table 3, 25 mg/kg s.c., 15 min before CCK-8) was 108%. The “% Anti-Spasmodic Activity” value (gastric emptying; Table 3, 50 mg/kg p.o., 15 min before CCK-8) was 10%, the “% Anti-Spasmodic Activity” value (gastric emptying; Table 3, 50 mg/kg s.c., 15 min before CCK-8) was 112% and the “% Anti-Spasmodic Activity” value (gastric emptying; Table 3, 75 mg/kg p.o., 15 min before CCK-8) was 47%. For the same molecule, the “% Anti-Spasmodic Activity” value (gastric emptying; Table 3, 100 mg/kg p.o., 15 min before CCK-8) was 56%, the “% Anti-Spasmodic Activity” value (gastric emptying; Table 3, 125 mg/kg p.o., 15 min before CCK-8) was 81% and the “% Anti-Spasmodic Activity” value (gastric emptying; Table 3, 250 mg/kg p.o., 15 min before CCK-8) was 88%. For the same molecule, the “% Anti-Spasmodic Activity” value (gastric emptying; Table 3, 500 mg/kg p.o., 15 min before CCK-8) was 105%.
`O=C(O)CN(CCc1ccccc1)C(=O)C(Cc1c[nH]c2ccccc12)NC(=O)c1cnc2ccccc2c1` [BIM-18225, α-N-(3-quinolylcarbonyl)-L-tryptyl-N'-phenylethylglycine] was tested, and the “% Anti-Spasmodic Activity” value (gastric emptying; [3]) was 22%.
`O=C(O)CN(CCc1ccccc1)C(=O)C(Cc1c[nH]c2ccccc12)NC(=O)c1ccc2ccccc2c1` [BIM-18226, α-N-(2-naphthylcarbonyl)-L-tryptyl-N'-phenylethylglycine] was tested, and the pIC50 (Pancreatic CCK Receptor) was 6.30, the “% Anti-Spasmodic Activity” value (gastric emptying; [1]) was 35% and the “% Anti-Spasmodic Activity” value (gastric emptying; [3]) was 88%.
